The target in assay [1] is MAPK14 (human) (UniProt Q16539). Briefly: Hydroxyurea-induced Hemoglobinization (K562 Cells). As to conditions: concentration not given here.
The target is the same in assay [2]. Briefly: Sodium butyrate-induced Hemoglobinization (K562 Cells). The following applies: concentration not given here.

The source of these data is the Kinase Knowledgebase extract (Sharma et al. 2016).

SMILES strings stand for the structures.

Sequence of MAPK14 (human) (Q16539 whole entry, looked up): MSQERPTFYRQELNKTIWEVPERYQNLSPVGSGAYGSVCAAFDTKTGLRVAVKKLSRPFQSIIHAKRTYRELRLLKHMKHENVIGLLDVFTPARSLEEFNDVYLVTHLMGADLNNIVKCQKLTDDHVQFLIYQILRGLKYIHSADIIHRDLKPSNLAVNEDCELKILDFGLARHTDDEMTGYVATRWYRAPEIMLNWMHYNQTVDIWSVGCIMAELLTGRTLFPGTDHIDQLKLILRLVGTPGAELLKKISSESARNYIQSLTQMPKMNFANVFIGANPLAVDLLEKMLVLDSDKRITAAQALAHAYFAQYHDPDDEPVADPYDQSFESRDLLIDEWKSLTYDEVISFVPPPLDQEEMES

As to `COc1cccc(-c2cc(=O)c3ccccc3o2)c1N`, at MAPK14 (human) [1], the cell count was determined as 32.4%.

As to `COc1cccc(-c2cc(=O)c3ccccc3o2)c1N.NC(=O)NO`, at MAPK14 (human) [1], the cell count turned out to be 54%.

In the case of `CCCC(=O)[O-].[Na+]`, at MAPK14 (human) [2], the cell count amounted to 39.8%.
